How the values were obtained:
[1] = molecular target: T1, short form of the GPR120 receptor (GPR120S) (Homo sapiens, UniProt Q5NUL3); assay: Human GPR120 DiscoveRx PathHunter Beta-Arrestin assay, Procedure β-arrestin B; type: cell-based; conditions: PathHunter CHO-K1 GPR120S β-Arrestin cell line, 5000 cells/well, read-out: hGPR120 β-arrestin B EC50
T1 construct: host or cells: PathHunter CHO-K1 GPR120S β-Arrestin Cell Line
Excerpt: The binding of an agonist (medium/long chain fatty acids or small molecule agonists) to the G-protein-coupled receptor GPR120 activates phospholipase C, leading to release of intracellular Ca^+2 through the generation of inositol 1,4,5-trisphosphate (InsP3 or IP3). GPR120 activation can also trigger intracellular signaling via recruitment of Beta-Arrestin. In the present method, agonist-induced activation of the human GPR120 receptor is monitored through the use of PathHunter CHO-K1 GPR120 Beta-Arrestin Cell Line engineered by DiscoveRx, as detailed below. The cell lines are designed to co-express both the ProLink/Enzyme Donor (PK)-tagged GPCR and the Enzyme […] (EA)-tagged Beta-Arrestin fusion proteins. Upon GPR120 receptor stimulation/activation, the EA-tagged Beta-Arrestin portion is translocated to the tagged receptor, where the two enzyme fragments are brought within close proximity. Under these conditions, these fragments can interact and form an active Beta-gal enzyme complex through Enzyme Fragment Complementation (EFC). This active Beta-gal complex can enzymatically hydrolyse the substrate to produce a detectable light signal; therefore, activation as a function of agonist concentration can be expressed as an EC50 value to determine relative compound activities. This in vitro assay therefore serves to assess compound agonist activity of the GPR120. Procedure β-Arrestin A: In Procedure β-arrestin A, the cell used were PathHunter CHO-K1 GPR120 β-Arrestin Cell Line, expressing the long form of human GPR120 (Genbank accession number NM 181745), with 3000 cells per well. Procedure β-Arrestin B: In Procedure 3-arrestin B the cells used were PathHunter CHO-K1 GPR120S β-Arrestin Cell Line, expressing the short form of the GPR120 receptor (Accession #NM_181745), with 5000 cells/well. Assay Procedure:
The selected CHO-K1 GPR120 β-Arrestin cells were cultured in Ham's F12 media supplemented with 10% fetal bovine serum (FBS), 1% Glutamine, lx p/s, 800 μg/mL G418 and 300 μg/mL Hygromycin B (for selection). Cell stocks were maintained and grown in a sub-confluent state using standard cell culture procedures. The day before the experiment, the cells were harvested with non-enzymatic cell dissociation buffer and re-suspended in complete growth media at the desired concentration. A Corning 384-plate was then seeded with the proper number of cells in a volume of 25 μL, per well. The seeded plates were incubated overnight at 37° C.
On the day of the experiment, the Assay Buffer containing (a) HBSS with Ca^++ and Mg^++, (b) 20 mM HEPES, and (c) 0.1% BSA stabilizer (pH 7.4) was prepared. The growth medium was gently removed from the cell plates and 20 μL of Assay Buffer added to each well. The plate was then incubated at 37° C. for 60 min. Test compounds were serially diluted in Assay Buffer to desired concentrations (more particularly to one or more of the following μM concentrations: 25, 12.5, 6.25, 3.125, 1.5625, 0.78125, 0.390625, 0.1953125, 0.09765625, 0.048828125, 0.024414063, 0.012207031). Five μL of compound dilution was then added to each well and the plate incubated at 37° C. for 90 min. The detection reagents were prepared according to the manufacture's instruction. Twelve μL of the detection reagents were added to each well and the plate incubated at room temperature for 60 min.
The plates were read on an EnVision instrument, using Protocol name: Luminescence, Plate type: 384 Costar, Measurement height: 3 mm, Measurement time: 1 s, Aperture: 384 Plate aperture. The % activity relative to the positive control was calculated using the following equation:
The % Activity values were plotted versus the concentration of test compound and fitted to a sigmoidal dose-response curve with a Hill slope=1 (fixed value) using nonlinear regression with GraphPad Prism 5.0 to calculate the EC50 values. […]

Human GPR120 short form = molecular target: T2, Human GPR120 short form (Homo sapiens, UniProt Q5NUL3); assay: Human GPR120 calcium flux assay (FLIPR), Procedure Calcium A; type: cell-based; conditions: HEK-293 cells expressing human GPR120 short form, 2500 cells/well; read-out: GPR120 Ca2+ Assay A EC50
T2 construct: expressed in transfected cells
T2 sequence (Q5NUL3 1-361): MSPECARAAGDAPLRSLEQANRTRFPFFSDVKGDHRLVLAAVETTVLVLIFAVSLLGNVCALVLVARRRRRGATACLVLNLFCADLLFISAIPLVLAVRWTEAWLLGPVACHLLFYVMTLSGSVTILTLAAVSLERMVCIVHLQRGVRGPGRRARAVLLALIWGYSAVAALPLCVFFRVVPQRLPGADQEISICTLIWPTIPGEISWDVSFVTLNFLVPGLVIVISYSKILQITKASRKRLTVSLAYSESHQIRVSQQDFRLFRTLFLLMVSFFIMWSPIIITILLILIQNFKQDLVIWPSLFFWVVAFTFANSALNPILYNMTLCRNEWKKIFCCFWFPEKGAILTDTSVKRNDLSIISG
In short: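 HEK293 cells stably expressing the short isoform (NM_001195755.1), 2500/well, starved 1 h, then loaded with Fluo-4 NW plus probenecid (30 min 37 °C, 15 min RT). Compound solutions 0.012–100 μM, 0.2% DMSO final; FLIPR read 300 s after addition. EC50 from Fmax−Fmin fitted to variable-slope sigmoid (Hill <2).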

T1 sequence (P32121 whole entry partner, one chain of several): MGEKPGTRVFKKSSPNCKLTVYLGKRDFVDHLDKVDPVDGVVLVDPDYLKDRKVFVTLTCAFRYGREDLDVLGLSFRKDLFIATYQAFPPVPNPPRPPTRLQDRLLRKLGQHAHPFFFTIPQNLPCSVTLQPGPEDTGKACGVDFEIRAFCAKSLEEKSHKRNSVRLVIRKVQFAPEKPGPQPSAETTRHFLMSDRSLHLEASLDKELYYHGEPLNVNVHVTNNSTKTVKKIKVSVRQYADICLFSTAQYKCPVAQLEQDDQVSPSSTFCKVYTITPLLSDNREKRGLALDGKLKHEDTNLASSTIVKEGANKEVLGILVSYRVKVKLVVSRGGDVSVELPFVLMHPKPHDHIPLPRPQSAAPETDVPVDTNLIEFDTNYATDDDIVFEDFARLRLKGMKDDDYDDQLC

SMILES | EC50 [1] [µM] | EC50 (Human GPR120 short form) [µM]
O=C(O)CCc1cc(F)c(OCc2c(C3CCC(F)(F)C3)nsc2C(F)(F)F)c(F)c1 (stereo not shown) [Cpd 164, 3-(4-[[3-(3,3-difluorocyclopentyl)-5-(trifluoromethyl)-1,2-thiazol-4-yl]methoxy]-3,5-difluorophenyl)propanoic acid] | 0.427 | 0.21
O=C(O)CCc1cc(F)c(OCc2c(C3CC(F)(F)C3)nsc2C(F)(F)F)c(F)c1 [Cpd 147, 3-(4-[[3-(3,3-difluorocyclobutyl)-5-(trifluoromethyl)-1,2-thiazol-4-yl]methoxy]-3,5-difluorophenyl) propanoic acid] | 0.39 | 0.165
CC(Cc1ccc(OCc2c(-c3ccc(Cl)cc3)nsc2C(F)(F)F)cc1)C(=O)O (stereo not shown) [Cpd 195, 3-(4-[[3-(4-chlorophenyl)-5-(trifluoromethyl)-1,2-thiazol-4-yl]methoxy]phenyl)-2-methylpropanoic acid] | 0.307 | 0.366
CC(Cc1cc(F)c(OCc2c(-c3ccc(Cl)c(F)c3)nsc2C(F)(F)F)c(F)c1)C(=O)O (stereo not shown) [Cpd 90, 3-(4-((3-(4-chloro-3-fluorophenyl)-5-(trifluoromethyl)isothiazol-4-yl)methoxy)-3,5-difluorophenyl)-2-methylpropanoic acid] | 0.154 | 0.067
CCc1ccc(-c2nsc(C(F)(F)F)c2COc2c(F)cc(CC(C)C(=O)O)cc2F)c(F)c1 (stereo not shown) [Cpd 188, 3-(4-((3-(4-ethyl-2-fluorophenyl)-5-(trifluoromethyl)isothiazol-4-yl)methoxy)-3,5-difluorophenyl)-2-methylpropanoic acid] | 0.153 | 0.306
COc1cc(F)c(-c2nsc(C(F)(F)F)c2COc2c(F)cc(CCC(=O)O)cc2F)c(F)c1 [Cpd 197, 3-(4-[[3-(2,6-difluoro-4-methoxyphenyl)-5-(trifluoromethyl)-1,2-thiazol-4-yl]methoxy]-3,5-difluorophenyl)propanoic acid] | 0.224 | 0.392
O=C(O)CCc1cc(F)c(OCc2c(-c3ccc(F)cc3F)nsc2C(F)(F)F)c(F)c1 [Cpd 174, 3-(4-((3-(2,4-difluorophenyl)-5-(trifluoromethyl)isothiazol-4-yl)methoxy)-3,5-difluorophenyl)propanoic acid] | 0.085 | 0.246
Cc1ccccc1-c1snc(C(F)(F)F)c1COc1ccc(CCC(=O)O)c(C(F)(F)F)c1 [Cpd 203, 3-(4-[[5-(2-methylphenyl)-3-(trifluoromethyl)-1,2-thiazol-4-yl]methoxy]-2-(trifluoromethyl)phenyl) propanoic acid] | 1.48 | 0.478
O=C(O)CCc1ccc(OCc2c(C(F)(F)F)nsc2-c2ccc(Cl)cc2)cc1OC(F)(F)F [Cpd 159, 3-(4-[[5-(4-chlorophenyl)-3-(trifluoromethyl)-1,2-thiazol-4-yl]methoxy]-2-(trifluoromethoxy)phenyl) propanoic acid] | 0.415 | 0.198

Next, values leading:

EC50 [1] [µM] | EC50 (Human GPR120 short form) [µM] | SMILES
1.05 | 0.58 | Cc1cc(CCC(=O)O)c(C(F)(F)F)cc1OCc1c(Cl)nsc1-c1ccccc1C [Cpd 210, 3-(4-((3-chloro-5-(o-tolyl)isothiazol-4-yl)methoxy)-5-methyl-2-(trifluoromethyl)phenyl)propanoic acid]
0.075 | 0.089 | Cc1ccc(-c2nsc(C(F)(F)F)c2COc2ccc(CCC(=O)O)c(C)c2C)cc1F [Cpd 109, 3-(4-[[3-(3-fluoro-4-methylphenyl)-5-(trifluoromethyl)-1,2-thiazol-4-yl]methoxy]-2,3-dimethylphenyl)propanoic acid]
0.421 | 0.236 | O=C(O)CCc1ccc(OCc2c(-c3ccc(Cl)cc3)nsc2C(F)(F)F)cc1C(F)(F)F [Cpd 173, 3-(4-[[3-(4-chlorophenyl)-5-(trifluoromethyl)-4-yl]methoxy]-2-(trifluoromethyl)phenyl)propanoic acid]
0.031 | 0.069 | Cc1ccc(-c2nsc(C(F)(F)F)c2COc2c(F)cc(CCC(=O)O)cc2F)cc1F [Cpd 91, 3-(3,5-difluoro-4-[[3-(3-fluoro-4-methylphenyl)-5-(trifluoromethyl)-1,2-thiazol-4-yl]methoxy]phenyl)propanoic acid]
0.526 | 0.135 | Cc1c(CCC(=O)O)ccc(OCc2c(C(F)(F)F)nsc2-c2ccc(Cl)c(F)c2)c1C [Cpd 136, 3-(4-[[5-(4-chloro-3-fluorophenyl)-3-(trifluoromethyl)-1,2-thiazol-4-yl]methoxy]-2,3-dimethylphenyl)propanoic acid]
0.104 | 0.071 | COc1cccc(-c2nsc(C(F)(F)F)c2COc2c(F)cc(CCC(=O)O)cc2F)c1 [Cpd 94, 3-(3,5-difluoro-4-[[3-(3-methoxyphenyl)-5-(trifluoromethyl)-1,2-thiazol-4-yl]methoxy]phenyl)propanoic acid]
0.719 | 0.182 | Cc1ccc(-c2snc(C(F)(F)F)c2COc2ccc(CCC(=O)O)c(C)c2C)c(F)c1 [Cpd 155, 3-(4-[[5-(2-fluoro-4-methylphenyl)-3-(trifluoromethyl)-1,2-thiazol-4-yl]methoxy]-2,3-dimethylphenyl)propanoic acid]
0.04 | 0.362 | CCc1ccc(-c2nsc(C(F)(F)F)c2COc2c(F)cc(CCC(=O)O)cc2F)cc1F [Cpd 194, 3-(4-((3-(4-ethyl-3-fluorophenyl)-5-(trifluoromethyl)isothiazol-4-yl)methoxy)-3,5-difluorophenyl)propanoic acid]
0.352 | 0.222 | COc1ccc(-c2nsc(C(F)(F)F)c2COc2ccc(CCC(=O)O)c(C)c2C)cn1 [Cpd 167, 3-(4-[[3-(6-methoxypyridin-3-yl)-5-(trifluoromethyl)-1,2-thiazol-4-yl]methoxy]-2,3-dimethylphenyl)propanoic acid]
0.223 | 0.121 | COc1cccc(-c2nsc(C(F)(F)F)c2COc2ccc(CCC(=O)O)c(C)c2C)c1 [Cpd 126, 3-(4-[[3-(3-methoxyphenyl)-5-(trifluoromethyl)-1,2-thiazol-4-yl]methoxy]-2,3-dimethylphenyl) propanoic acid]
0.051 | 0.108 | O=C(O)CCc1cc(F)c(OCc2c(-c3ccc(C(F)(F)F)cc3)nsc2C(F)(F)F)c(F)c1 [Cpd 121, 3-(3,5-difluoro-4-[[5-(trifluoromethyl)-3-[4-(trifluoromethyl)phenyl]-1,2-thiazol-4-yl]methoxy]phenyl)propanoic acid]
